Measurements reported in patent US20260015350A1, “AZAQUINAZOLINE PAN-KRAS INHIBITORS” (Mirati Therapeutics, Inc., priority 2022, published 2026).

How the values were obtained:
KRas^G12R = biological target: T1, KRas^G12R (Homo sapiens, UniProt P01116, G12R); assay: KRas binding assay (TR-FRET tracer displacement), KRas G12R
T1 construct: Biotinylated KRas (corresponding to amino acids 1-169, produced at Accelegan Inc.); biotin (biotinylated); purchased Accelegan Inc

[1] = tested on: KRas-mediated phosphorylation of ERK in H460 cells; assay: Inhibition of KRas-mediated phosphorylation of ERK (Cisbio HTRF pERK), H460 cells; format: cell-based; conditions: Homo sapiens; for inhibition at 0.1 µM: NCI-H460, 3 h, single point, 100 nM compound, 3 hrs; for IC50: NCI-H460, HTRF pERK
In short: (§1)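 Each compound was tested at 10 concentrations, threefold apart with 10 uM the highest, for 3 hrs on 6,000 seeded cells; final DMSO was 0.8% and Trametinib (0.2 uM) served as Min control. Lysed cells were analysed for pERK by HTRF.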

[2] = tested on: KRas-mediated phosphorylation of ERK in H727 cells; assay: Inhibition of KRas-mediated phosphorylation of ERK (Cisbio HTRF pERK), H727 cells; format: cell-based; conditions: Homo sapiens; for IC50: NCI-H727, H727 cells, HTRF pERK; for inhibition at 0.1 µM: NCI-H727, 3 h, single point, 100 nM compound, 3 hrs, H727 cells
In short: as §1

[3] = tested on: KRas-mediated phosphorylation of ERK in A549 cells; assay: Inhibition of KRas-mediated phosphorylation of ERK (Cisbio HTRF pERK), A549 cells; format: cell-based; conditions: Homo sapiens; for inhibition at 0.1 µM: A549, 3 h, single point, 100 nM compound, 3 hrs; for IC50: HTRF pERK
In short: (§2)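 Signal read by HTRF (d2/Cryptate antibody pair, 2 hr room-temperature incubation on lysate). Cells: 6,000 per well, 3 hr compound exposure. Titration: 10 uM highest, 3-fold, 10 points.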

[4] = tested on: KRas-mediated phosphorylation of ERK in H358 cells; assay: Inhibition of KRas-mediated phosphorylation of ERK (Cisbio HTRF pERK), H358 cells; format: cell-based; conditions: Homo sapiens; for inhibition at 0.1 µM: NCI-H358, 3 h, single point, 100 nM compound, 3 hrs; for IC50: NCI-H358, HTRF pERK
In short: as §1

[5] = tested on: KRas-mediated phosphorylation of ERK in HCT116 cells; assay: Inhibition of KRas-mediated phosphorylation of ERK (Cisbio HTRF pERK), HCT116 cells; format: cell-based; conditions: Homo sapiens; for inhibition at 0.1 µM: HCT-116, 3 h, single point, 100 nM compound, 3 hrs; for IC50: HCT-116, HTRF pERK
In short: as §2

KRas^G12D = biological target: T2, KRas^G12D (Homo sapiens, UniProt P01116, G12D); assay: KRas binding assay (TR-FRET tracer displacement), KRas G12D
T2 construct: Biotinylated KRas (corresponding to amino acids 1-169, produced at Accelegan Inc.); biotin (biotinylated); purchased Accelegan Inc
T2 sequence (P01116 1-169 isoform P01116-2 G12D): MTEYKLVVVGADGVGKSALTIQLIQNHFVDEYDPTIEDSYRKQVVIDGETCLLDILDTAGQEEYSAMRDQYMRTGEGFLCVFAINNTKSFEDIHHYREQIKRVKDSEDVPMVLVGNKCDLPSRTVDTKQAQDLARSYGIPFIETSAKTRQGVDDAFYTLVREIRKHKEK

KRas^G12V = biological target: T3, KRas^G12V (Homo sapiens, UniProt P01116, G12V); assay: KRas binding assay (TR-FRET tracer displacement), KRas G12V
T3 construct: Biotinylated KRas (corresponding to amino acids 1-169, produced at Accelegan Inc.); biotin (biotinylated); purchased Accelegan Inc
T3 sequence (P01116 1-169 isoform P01116-2 G12V): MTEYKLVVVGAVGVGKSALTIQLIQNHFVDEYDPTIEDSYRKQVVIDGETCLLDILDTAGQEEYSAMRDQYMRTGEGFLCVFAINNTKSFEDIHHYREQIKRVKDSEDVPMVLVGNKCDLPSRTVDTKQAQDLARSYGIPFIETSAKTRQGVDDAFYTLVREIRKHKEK

[6] = tested on: KRas-mediated phosphorylation of ERK in AsPC-1 cells; assay: Inhibition of KRas-mediated phosphorylation of ERK (Cisbio HTRF pERK), AsPC-1 cells; format: cell-based; conditions: Homo sapiens; for IC50: ASPC1, AsPC-1 cells, HTRF pERK; for inhibition at 0.1 µM: ASPC1, 3 h, single point, 100 nM compound, 3 hrs, AsPC-1 cells
In short: as §1

T1 sequence (P01116 1-169 isoform P01116-2 G12R): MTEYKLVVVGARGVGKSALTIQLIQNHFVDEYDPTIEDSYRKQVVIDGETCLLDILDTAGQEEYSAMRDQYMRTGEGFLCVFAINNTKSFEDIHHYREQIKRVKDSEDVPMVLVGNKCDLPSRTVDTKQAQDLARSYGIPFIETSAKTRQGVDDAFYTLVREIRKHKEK

| Structure (SMILES) | IC50 (KRas^G12R) [nM] | inhibition at 0.1 µM [1] [%] | IC50 [2] [nM] | inhibition at 0.1 µM [3] [%] | inhibition at 0.1 µM [4] [%] | inhibition at 0.1 µM [5] [%] | IC50 (KRas^G12D) [nM] | IC50 (KRas^G12V) [nM] | IC50 [6] [nM] | IC50 [1] [nM] | IC50 [3] [nM] | IC50 [4] [nM] | IC50 [5] [nM] | inhibition at 0.1 µM [2] [%] | inhibition at 0.1 µM [6] [%] |
| --- | --- | --- | --- | --- | --- | --- | --- | --- | --- | --- | --- | --- | --- | --- | --- |
| CCc1c(F)ccc2cc(O)cc(-c3ncc4c(N5CCCC(C6CCOC6)C5)nc(OC[C@@]56CCCN5C[C@H](F)C6)nc4c3F)c12 (stereo partly drawn) [Example 595, 5-ethyl-6-fluoro-4-(8-fluoro-2-(((2R,7aS)-2-fluorohexahydro-1H-pyrrolizin-7a-yl)methoxy)-4-(3-(tetrahydrofuran-3-yl)piperidin-1-yl)pyrido[4,3-d]pyrimidin-7-yl)naphthalen-2-ol] | 85 | 12 | 1190 | 3 | -1 | -9 | 194 | 38 | 1570 | – | – | – | – | – | – |
| CCc1c(F)ccc2cc(O)cc(-c3ncc4c(NCc5cc(C(=O)N(C)C)nn5C5CCS(=O)(=O)C5)nc(OC[C@@]56CCCN5C[C@H](F)C6)nc4c3F)c12 (single isomer, unassigned) [Example 694] | 38 | -3 | 605 | -8 | 9 | -10 | 106 | 17 | 985 | – | – | – | – | – | – |
| CCc1c(F)ccc2cc(O)cc(-c3ncc4c(N5CCCC(Cn6cccn6)C5)nc(OC[C@@]56CCCN5C[C@H](F)C6)nc4c3F)c12 (stereo partly drawn) [Example 610, 4-(4-(3-((1H-pyrazol-1-yl)methyl)piperidin-1-yl)-8-fluoro-2-(((2R,7aS)-2-fluorotetrahydro-1H-pyrrolizin-7a(5H)-yl)methoxy)pyrido[4,3-d]pyrimidin-7-yl)-5-ethyl-6-fluoronaphthalen-2-ol] | 48 | 31 | 660 | 10 | 1 | -5 | 66 | 28 | 884 | 256 | 1300 | 662 | 1010 | – | – |
| CCOC(=O)C12CCC(CN(c3nc(OC[C@@]45CCCN4C[C@H](F)C5)nc4c(F)c(-c5cc(O)cc6ccc(F)c(CC)c56)ncc34)C1)C2(F)F (stereo partly drawn) [Example 899, ethyl 3-(7-(8-ethyl-7-fluoro-3-hydroxynaphthalen-1-yl)-8-fluoro-2-(((2R,7aS)-2-fluorotetrahydro-1H-pyrrolizin-7a(5H)-yl)methoxy)pyrido[4,3-d]pyrimidin-4-yl)-8,8-difluoro-3-azabicyclo[3.2.1]octane-1-carboxylate] | 66 | – | 4410 | – | – | – | 692 | 240 | 5370 | 1290 | 3530 | 1410 | 6690 | – | – |
| CCc1c(F)ccc2cc(O)cc(-c3ncc4c(N5Cc6n[nH]c(CO)c6C5)nc(OC[C@@]56CCCN5C[C@H](F)C6)nc4c3F)c12 [Example 785, 5-ethyl-6-fluoro-4-(8-fluoro-2-(((2R,7aS)-2-fluorohexahydro-1H-pyrrolizin-7a-yl)methoxy)-4-(3-(hydroxymethyl)pyrrolo[3,4-c]pyrazol-5 (2H,4H,6H)-yl)pyrido[4,3-d]pyrimidin-7-yl)naphthalen-2-ol] | 787 | 0 | > 10000 | 8 | 9 | 5 | 1300 | 435 | – | – | – | – | – | 2 | -6 |
| CCc1c(F)ccc2cc(O)cc(-c3ncc4c(N5CCC[C@@](C)(O)C5)nc(OCC5(CN(C)C)CC56CCC6)nc4c3F)c12 (stereo partly drawn) [Example 705, (3R)-1-[2-[[2-[(dimethylamino)methyl]spiro[2.3]hexan-2-yl]methoxy]-7-(8-ethyl-7-fluoro-3-hydroxy-1-naphthyl)-8-fluoro-pyrido[4,3-d]pyrimidin-4-yl]-3-methyl-piperidin-3-ol] | 30 | 0 | 1220 | 29 | 34 | -3 | 12 | 13 | 598 | – | – | – | – | 3 | 6 |
| CCc1c(F)ccc2cc(O)cc(-c3ncc4c(N5CCC[C@@](C)(O)C5)nc(OCC5(CN(C)C)CC5(C)C)nc4c3F)c12 (stereo partly drawn) [Example 704, (3R)-1-(2-((1-((dimethylamino)methyl)-2,2-dimethylcyclopropyl)methoxy)-7-(8-ethyl-7-fluoro-3-hydroxynaphthalen-1-yl)-8-fluoropyrido[4,3-d]pyrimidin-4-yl)-3-methylpiperidin-3-ol] | 11 | 40 | 223 | 26 | 47 | 19 | 5 | 5 | 53 | – | – | – | – | 21 | 25 |
| CCc1c(F)ccc2cc(O)cc(-c3ncc4c(N5CCCC6(C5)NC(=O)NC6=O)nc(N5CC(N(C)C)C5)nc4c3F)c12 (centres unmarked) [Example 534, 7-(2-(3-(dimethylamino)azetidin-1-yl)-7-(8-ethyl-7-fluoro-3-hydroxynaphthalen-1-yl)-8-fluoropyrido[4,3-d]pyrimidin-4-yl)-1,3,7-triazaspiro[4.5]decane-2,4-dione] | 2 | -6 | 1620 | -19 | -9 | -6 | 7 | 5 | 5810 | – | – | – | – | – | – |
| CCc1c(F)ccc2cc(O)cc(-c3ncc4c(N5CCC[C@@](C)(O)C5)nc(N5CC(N(C)C)C5)nc4c3F)c12 [Example 533, (R)-1-(2-(3-(dimethylamino)azetidin-1-yl)-7-(8-ethyl-7-fluoro-3-hydroxynaphthalen-1-yl)-8-fluoropyrido[4,3-d]pyrimidin-4-yl)-3-methylpiperidin-3-ol] | 119 | 8 | 1970 | 27 | -7 | 8 | 72 | 105 | 1500 | – | – | – | – | – | – |
| CCc1c(F)ccc2cc(O)cc(-c3ncc4c(N5CCC[C@@](C)(O)C5)nc(OC[C@]56CCCN5[C@@H](CNS(=O)(=O)N(C)C)CC6)nc4c3F)c12 [Example 787, (R)-1-(7-(8-ethyl-7-fluoro-3-hydroxynaphthalen-1-yl)-8-fluoro-2-(((3R,7aR)-3-(((dimethylsulfamoyl)amino)methyl)tetrahydro-1H-pyrrolizin-7a(5H)-yl)methoxy)pyrido[4,3-d]pyrimidin-4-yl)-3-methylpiperidin-3-ol] | 6 | 11 | 2080 | 14 | 8 | 9 | 4 | 3 | 1670 | – | – | – | – | 33 | 23 |
